Measured values from patent US10793550B2, “4-piperidin-n-(pyrimidin-4-yl)chroman-7-sulfonamide derivatives as sodium channel inhibitors” (GENENTECH, INC., priority 2017, dated 2020).
pIC50: −log10 of the molar value.

What was measured:
[1] = In vivo pharmacokinetic experiments (compound clearance in rats); conditions: rat; male rats, IV administration, plasma clearance; read-out: PK (CLp, rat)
Experimental: Example 6: In Vivo Pharmacokinetic Experiments (Compound Clearance in Rats)
In vivo clearance (CLp) of certain compounds was measured in order to evaluate whether these compounds were likely to be good candidates for development. Male rats were housed at controlled temperature and humidity in an alternating 12 hr light/dark cycle with access to food and water ad libitum. All in vivo studies were performed in accordance with Institutional Animal Care and Use Committee guidelines and in harmony with the Guide for Laboratory Animal Care and Use. Rats were administered IV administration of compound. Plasma was harvested from blood samples that were collected from each animal at various timepoints following the administration of compound. Plasma concentration of compound was determined by mass spectrometer, and pharmacokinetic analysis was performed using non-compartmental method using Phoenix WinNonlin. Following oral administration, percent bioavailability was determined for each animal by dividing the dose-normalized area under the plasma concentration-time curve from time 0 to the last measured concentration (AUC0-tlast) obtained following each oral dose by the mean dose-normalized AUC0-tlast of the animals dosed by IV injection.
CLp values above about 40 mL/min/kg in Example 6 are considered to be highly cleared from the body after administration of a compound to a subject, meaning that the exposure may be insufficient to be treated for a disease or disorder as provided herein.

hNav1.7 = molecular target: T1, hNav1.7 (Homo sapiens, UniProt Q15858); assay: Tritiated compound competitive binding to membranes from cells expressing hNav1.7 and the β1 subunit; conditions: competition with 100 pM [3H]compound, 18 h, room temperature; "this model or another representative model of inhibition"; read-out: Nav1.7 inhib. in vitro
T1 construct: expressed in transfected cells
T1 sequence (Q15858 whole entry): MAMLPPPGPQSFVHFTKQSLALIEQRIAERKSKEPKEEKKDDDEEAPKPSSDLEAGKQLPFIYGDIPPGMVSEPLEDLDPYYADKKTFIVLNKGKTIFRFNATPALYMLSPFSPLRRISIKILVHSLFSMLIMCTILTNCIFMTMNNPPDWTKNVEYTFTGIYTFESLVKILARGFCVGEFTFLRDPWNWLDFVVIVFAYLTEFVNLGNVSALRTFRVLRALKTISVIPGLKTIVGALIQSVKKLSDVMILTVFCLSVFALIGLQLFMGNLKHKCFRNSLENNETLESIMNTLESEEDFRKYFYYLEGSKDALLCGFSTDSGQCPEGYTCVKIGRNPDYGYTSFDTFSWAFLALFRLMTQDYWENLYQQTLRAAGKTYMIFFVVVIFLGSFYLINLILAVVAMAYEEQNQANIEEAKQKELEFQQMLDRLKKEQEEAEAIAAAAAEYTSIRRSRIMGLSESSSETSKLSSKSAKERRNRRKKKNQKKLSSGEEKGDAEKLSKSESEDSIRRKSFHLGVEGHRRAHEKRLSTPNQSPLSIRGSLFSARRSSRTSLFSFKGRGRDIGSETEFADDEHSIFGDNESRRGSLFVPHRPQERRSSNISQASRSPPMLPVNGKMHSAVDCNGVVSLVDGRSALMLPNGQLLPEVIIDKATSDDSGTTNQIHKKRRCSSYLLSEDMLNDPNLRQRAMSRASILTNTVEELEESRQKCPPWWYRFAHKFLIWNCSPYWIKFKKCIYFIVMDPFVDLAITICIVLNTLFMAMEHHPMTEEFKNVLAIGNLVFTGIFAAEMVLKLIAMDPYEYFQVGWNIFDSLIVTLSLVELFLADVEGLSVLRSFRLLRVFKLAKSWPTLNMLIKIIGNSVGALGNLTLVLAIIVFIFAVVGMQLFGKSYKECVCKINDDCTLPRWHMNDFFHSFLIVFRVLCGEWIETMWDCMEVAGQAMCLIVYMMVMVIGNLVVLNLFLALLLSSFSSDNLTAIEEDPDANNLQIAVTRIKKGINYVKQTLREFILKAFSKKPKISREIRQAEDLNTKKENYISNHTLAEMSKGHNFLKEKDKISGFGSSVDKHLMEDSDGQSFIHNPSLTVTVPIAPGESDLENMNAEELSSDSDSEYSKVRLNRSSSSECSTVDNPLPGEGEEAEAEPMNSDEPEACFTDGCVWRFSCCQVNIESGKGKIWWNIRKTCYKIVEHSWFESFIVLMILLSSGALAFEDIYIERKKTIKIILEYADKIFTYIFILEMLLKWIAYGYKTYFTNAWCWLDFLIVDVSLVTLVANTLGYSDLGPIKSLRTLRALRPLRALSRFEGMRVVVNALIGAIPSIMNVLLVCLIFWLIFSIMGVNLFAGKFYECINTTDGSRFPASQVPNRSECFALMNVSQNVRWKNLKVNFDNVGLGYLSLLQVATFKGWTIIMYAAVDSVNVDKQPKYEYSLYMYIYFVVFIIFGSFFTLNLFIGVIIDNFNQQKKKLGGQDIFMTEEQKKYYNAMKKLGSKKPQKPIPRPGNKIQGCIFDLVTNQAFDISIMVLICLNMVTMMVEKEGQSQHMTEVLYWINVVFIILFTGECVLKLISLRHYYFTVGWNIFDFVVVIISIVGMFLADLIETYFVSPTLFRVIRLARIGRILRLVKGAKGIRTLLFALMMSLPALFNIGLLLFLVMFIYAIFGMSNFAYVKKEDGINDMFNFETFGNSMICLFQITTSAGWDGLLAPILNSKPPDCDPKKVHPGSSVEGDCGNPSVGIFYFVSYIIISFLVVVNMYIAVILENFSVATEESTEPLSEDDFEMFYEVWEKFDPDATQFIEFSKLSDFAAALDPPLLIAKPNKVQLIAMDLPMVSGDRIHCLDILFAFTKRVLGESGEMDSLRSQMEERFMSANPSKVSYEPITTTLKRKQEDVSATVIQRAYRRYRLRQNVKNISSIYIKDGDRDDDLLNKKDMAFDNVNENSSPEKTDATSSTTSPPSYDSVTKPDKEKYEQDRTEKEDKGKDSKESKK
T1 sequence (Q07699 19-218 partner): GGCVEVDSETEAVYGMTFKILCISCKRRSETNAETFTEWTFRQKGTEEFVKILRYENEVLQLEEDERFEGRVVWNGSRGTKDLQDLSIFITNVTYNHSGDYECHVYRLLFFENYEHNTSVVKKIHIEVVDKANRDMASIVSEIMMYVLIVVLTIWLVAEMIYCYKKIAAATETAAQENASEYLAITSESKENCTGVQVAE
Experimental: Example 5: Tritiated Compound Binding to Membranes Isolated from Cells that Heterologously Express hNav1.7 and the β1 Subunit
Preparation of membranes containing recombinantly expressed sodium channels: Frozen recombinant cell pellets were thawed on ice and diluted to 4 times the cell pellet weight with ice cold 50 mM Tris HCl, pH 7.4 buffer. The cell suspensions were homogenized on ice using a motorized glass dounce homogeniser. Homogenates were further diluted 8.4 times with ice cold 50 mM Tris HCl, pH 7.4 buffer and then centrifuged at 200×g at 4° C. for 15 min. The supernatants were collected and centrifuged at 10000×g at 4° C. for 50 min. The pellets were then re-suspended in 100 mM NaCl, 20 mM Tris HCl, pH 7.4 buffer containing 1% v/v protease inhibitors (Calbiochem) and re-homogenized on ice. The homogenized membranes were then processed through a syringe equipped with a 26 gauge needle. Protein concentrations were determined by Bradford Assay and the membranes were stored at −80° C.
Radioligand Binding Studies:
Saturation experiments. A competitive NaV1.7 inhibitor having a methyl group was tritiated. Three tritiums were incorporated in place of methyl hydrogens to generate [^3H]compound. Binding of this radioligand was performed in 5 mL borosilicate glass test tubes at room temperature. Binding was initiated by adding membranes to increasing concentrations of [^3H]compound in 100 mM NaCl, 20 mM Tris HCl, pH 7.4 buffer containing 0.01% w/v bovine serum albumin (BSA) for 18h. Non-specific binding was determined in the presence of 1 μM unlabeled compound. After 18h, the reactants were filtered through GF/C glass fiber filters presoaked in 0.5% w/v polyethylene imine. Filters were washed with 15 mL ice cold 100 mM NaCl, 20 mM Tris HCl, pH7.4 buffer containing 0.25% BSA to separate bound from free ligand. [^3H]compound bound to filters was quantified by liquid scintillation counting.
Competitive Binding Experiments:
Binding reactions were performed in 96-well polypropylene plates at room temperature for 18h. In 360 μL, membranes were incubated with 100 pM [^3H]compound and increasing concentrations of Test Compound. Non-specific binding was defined in the presence of 1 μM unlabeled compound. Reactions were transferred and filtered through 96-well glass fiber/C filter plates presoaked with 0.5% polyethylene imine. The filtered reactions were washed 5 times with 200 μL ice cold buffer containing 0.25% BSA. Bound radioactivity was determined by liquid scintillation counting.
Data Analysis: For saturation experiments, non-specific binding was subtracted from total binding to provide specific binding and these values were recalculated in terms of pmol ligand bound per mg protein. Saturation curves were constructed and dissociation constants were calculated using the single site ligand binding model: Beq=(Bmax*X)/(X+Kd), where Beq is the amount of ligand bound at equilibrium, Bmax is the maximum receptor density, Kd is the dissociation constant for the ligand, and X is the free ligand concentration. For competition studies percent inhibition was determined and IC50 values were calculated using a 4 parameter logistic model (% inhibition=(A+((B−A)/(1+((x/C)^D)))) using XLfit, where A and B are the maximal and minimum inhibition respectively, C is the IC50 concentration and D is the (Hill) slope.

Structure (SMILES): O=S(=O)(Nc1ncns1)c1ccc2c(c1)OCC[C@@H]2N1CC[C@@](O)(C(F)(F)F)C[C@H]1c1ccc(F)cc1 [A]
- clearance [1]: > 60 mL/min/kg
- pIC50 (hNav1.7): 8.96

Structure (SMILES): O=S(=O)(Nc1ncns1)c1cc2c(cc1F)[C@@H](N1CC[C@@H](C(F)(F)F)C[C@H]1c1ccccn1)CCO2 [B]
- clearance [1]: > 60 mL/min/kg
- pIC50 (hNav1.7): > 9.30

Structure (SMILES): O=S(=O)(Nc1ncns1)c1ccc2c(c1)OCC[C@@H]2N1CC[C@@H](C(F)(F)F)C[C@H]1c1ccc(F)cc1 [C]
- clearance [1]: > 60 mL/min/kg

Structure (SMILES): N#C[C@H]1CCN([C@H]2CCOc3cc(S(=O)(=O)Nc4ncns4)ccc32)C(c2ccc(F)cc2)C1 (stereo partly drawn) [D]
- clearance [1]: > 60 mL/min/kg

Structure (SMILES): N#C[C@H]1CCN([C@H]2CCOc3cc(S(=O)(=O)Nc4ncns4)ccc32)[C@@H](c2ccc(F)cc2)C1 [D]
- pIC50 (hNav1.7): 7.96

Structure (SMILES): O=S(=O)(Nc1ncns1)c1ccc2c(c1)OCC[C@@H]2N1CC[C@H](C(F)F)C[C@@H]1c1ccc(F)cc1 [E]
- clearance [1]: > 60 mL/min/kg
- pIC50 (hNav1.7): 8.59

Structure (SMILES): O=S(=O)(Nc1ccncn1)c1cc2c(cc1F)[C@@H](N1CC[C@@H](C(F)(F)F)C[C@H]1c1ccccn1)CCO2 [Example 1, (S)-6-fluoro-4-((2S,4R)-2-(pyridin-2-yl)-4-(trifluoromethyl)piperidin-1-yl)-N-(pyrimidin-4-yl)chroman-7-sulfonamide]
- clearance [1]: < 30 mL/min/kg

Structure (SMILES): O=S(=O)(Nc1ccncn1)c1cc2c(cc1F)[C@@H](N1CC[C@@](O)(C(F)(F)F)C[C@H]1c1ccc(F)cc1)CCO2 [Example 2, (S)-6-fluoro-4-((2S,4S)-2-(4-fluorophenyl)-4-hydroxy-4-(trifluoromethyl)piperidin-1-yl)-N-(pyrimidin-4-yl)chroman-7-sulfonamide]
- clearance [1]: < 30 mL/min/kg
- pIC50 (hNav1.7): 9.30

Structure (SMILES): O=S(=O)(Nc1ccncn1)c1cc2c(cc1F)[C@@H](N1CC[C@@H](OC(F)F)C[C@H]1c1ccc(F)cc1)CCO2 [Example 3, (S)-4-((2S,4R)-4-(difluoromethoxy)-2-(4-fluorophenyl)piperidin-1-yl)-6-fluoro-N-(pyrimidin-4-yl)chroman-7-sulfonamide]
- clearance [1]: < 30 mL/min/kg
- pIC50 (hNav1.7): 8.66

Structure (SMILES): C[C@@H]1C[C@H](c2cccc(C(F)(F)F)c2)CCN1[C@H]1CCOc2cc(S(=O)(=O)Nc3ccncn3)c(F)cc21 [Example 4, (S)-6-fluoro-4-((2R,4R)-2-methyl-4-(3-(trifluoromethyl)phenyl)piperidin-1-yl)-N-(pyrimidin-4-yl)chroman-7-sulfonamide]
- clearance [1]: < 30 mL/min/kg
- pIC50 (hNav1.7): 8.47

Structure (SMILES): CS(=O)(=O)[C@@H]1CCN([C@H]2CCOc3cc(S(=O)(=O)Nc4ncns4)ccc32)[C@H](c2ccc(F)cc2)C1 [F]
- clearance [1]: > 60 mL/min/kg
- pIC50 (hNav1.7): 8.06
